In assay [1] the target is Lysine-specific histone demethylase 1A (Homo sapiens, UniProt O60341).
Description: Inhibition of LSD1 (unknown origin) incubated for 90 mins by fluorescence based assay
In assay [2] the test system is MCF7. The assay is described as follows: cells. The following applies: Homo sapiens, MCF7, 72 h.
Description: Antiproliferative activity against human MCF7 cells assessed as reduction in cell viability after 72 hrs by MTT assay
The test system of assay [3] is MCF7. The assay is described as follows: Induction of apoptosis in human MCF7 cells assessed as viable cells at 5 uM incubated for 24 hrs by AnnexinV-FITC and propidium iodide staining based flow cytometry analysis (reference value: 87.12 %). Format: functional. The following applies: read-out: Activity. For orientation: In flow cytometry, cells or beads pass a laser one at a time.

Assay [4] concerns MCF7. The assay is described as follows: Induction of apoptosis in human MCF7 cells assessed as early apoptotic cells at 5 uM incubated for 24 hrs by AnnexinV-FITC and propidium iodide staining based flow cytometry analysis (reference value: 3.08 %). Format: functional.
The test system of assay [5] is MCF7. The assay is described as follows: Induction of apoptosis in human MCF7 cells assessed as late apoptotic cells at 5 uM incubated for 24 hrs by AnnexinV-FITC and propidium iodide staining based flow cytometry analysis (reference value: 7.15 %). Format: functional.
For assay [6], the system named is MCF7. The assay is described as follows: Induction of apoptosis in human MCF7 cells assessed as necrotic cells at 5 uM incubated for 24 hrs by AnnexinV-FITC and propidium iodide staining based flow cytometry analysis (reference value: 2.35 %). Format: functional.
The subject of assay [7] is MCF7. The assay is described as follows: Induction of apoptosis in human MCF7 cells assessed as viable cells at 10 uM incubated for 24 hrs by AnnexinV-FITC and propidium iodide staining based flow cytometry analysis (reference value: 87.12 %). Format: functional. As to conditions: read-out: Activity.
Assay [8] deals with MCF7. The assay is described as follows: Induction of apoptosis in human MCF7 cells assessed as early apoptotic cells at 10 uM incubated for 24 hrs by AnnexinV-FITC and propidium iodide staining based flow cytometry analysis (reference value: 3.08 %). Format: functional.
Assay [9] deals with MCF7. The assay is described as follows: Induction of apoptosis in human MCF7 cells assessed as late apoptotic cells at 10 uM incubated for 24 hrs by AnnexinV-FITC and propidium iodide staining based flow cytometry analysis (reference value: 7.15 %). Format: functional.
For assay [10], the system named is MCF7. Kind of assay: Induction of apoptosis in human MCF7 cells assessed as necrotic cells at 10 uM incubated for 24 hrs by AnnexinV-FITC and propidium iodide staining based flow cytometry analysis (reference value: 2.35 %). Format: functional.
Assay [11] has as its system MCF7. The assay is described as follows: Induction of apoptosis in human MCF7 cells assessed as viable cells at 30 uM incubated for 24 hrs by AnnexinV-FITC and propidium iodide staining based flow cytometry analysis (reference value: 87.12 %). Format: functional. The following applies: read-out: Activity.
The subject of assay [12] is MCF7. Kind of assay: Induction of apoptosis in human MCF7 cells assessed as early apoptotic cells at 30 uM incubated for 24 hrs by AnnexinV-FITC and propidium iodide staining based flow cytometry analysis (reference value: 3.08 %). Format: functional.
The subject of assay [13] is MCF7. The assay is described as follows: Induction of apoptosis in human MCF7 cells assessed as late apoptotic cells at 30 uM incubated for 24 hrs by AnnexinV-FITC and propidium iodide staining based flow cytometry analysis (reference value: 7.15 %). It is filed as functional.
The test system of assay [14] is MCF7. The assay is described as follows: Induction of apoptosis in human MCF7 cells assessed as necrotic cells at 30 uM incubated for 24 hrs by AnnexinV-FITC and propidium iodide staining based flow cytometry analysis (reference value: 2.35 %). It is filed as functional.

One may read the IC50 as the concentration that gives 50% inhibition.

Regarding `O=S(=O)(Oc1cncc(Br)c1)C1CC2OC1C(c1ccc(O)cc1)=C2c1ccc(O)cc1` (stereo unspecified), the half-inhibitory concentration (IC50) in [1] was greater than 50 µM; in assay [2] it was 16.4 µM.

For the compound `O=S(=O)(Oc1cncc(F)c1)C1CC2OC1C(c1ccc(O)cc1)=C2c1ccc(O)cc1` (stereo unspecified), the results for the IC50 in assay [1] and in assay [2] were 18.3 µM and 13.8 µM, respectively.

Turning to `O=S(=O)(Oc1cccc(Cl)n1)C1CC2OC1C(c1ccc(O)cc1)=C2c1ccc(O)cc1` (stereo unspecified), the IC50 in assay [1] came to 4.08 µM; in [2] it was 10.2 µM.

In the case of `CCOC(=O)c1ccc(NS(=O)(=O)C2CC3OC2C(c2ccc(O)cc2)=C3c2ccc(O)cc2)cc1` (stereo unspecified), the results for the 50% inhibitory concentration (IC50) in assay [1] and in [2] were greater than 50 µM and 18.8 µM, respectively.

For the compound `O=S(=O)(Oc1cccnc1Cl)C1CC2OC1C(c1ccc(O)cc1)=C2c1ccc(O)cc1` (stereo unspecified), the IC50 in assay [1] stood at 7.13 µM; in assay [2], 30.2 µM.

Turning to `Cc1cccc(NC(=O)C2CC3OC2C(c2ccc(O)cc2)=C3c2ccc(O)cc2)n1` (stereo unspecified), the IC50 is greater than 50 µM in assay [1] and 26.2 µM in assay [2].

In the case of `O=C(Oc1cccnc1Br)C1CC2OC1C(c1ccc(O)cc1)=C2c1ccc(O)cc1` (stereo unspecified), the half-inhibitory concentration (IC50) in [1] was greater than 50 µM; in assay [2], 84 µM.

With `COC(=O)c1ccccc1NS(=O)(=O)C1CC2OC1C(c1ccc(O)cc1)=C2c1ccc(O)cc1` (stereo unspecified), the half-maximal inhibitory concentration (IC50) is 30 µM in assay [1] and 30.5 µM in assay [2].

As for `COC(=O)c1ccc(NS(=O)(=O)C2CC3OC2C(c2ccc(O)cc2)=C3c2ccc(O)cc2)cc1` (stereo unspecified), the concentration for half-maximal inhibition (IC50) stood at 13.2 µM in assay [1] and 15.1 µM in assay [2].

As to `O=C(NC1CC1)C1CC2OC1C(c1ccc(O)cc1)=C2c1ccc(O)cc1` (stereo unspecified), the IC50 in assay [1] was greater than 50 µM; in assay [2] it was greater than 100 µM.

For the compound `O=S(=O)(Oc1cccc(Br)n1)C1CC2OC1C(c1ccc(O)cc1)=C2c1ccc(O)cc1` (stereo unspecified), the IC50 was 5.92 µM in assay [1] and 7.9 µM in [2].

With `O=S(=O)(Oc1cccc2cccnc12)C1CC2OC1C(c1ccc(O)cc1)=C2c1ccc(O)cc1` (stereo unspecified), the IC50 in assay [1] is greater than 50 µM; in assay [2], 16.7 µM.

As for `O=C(Oc1cccnc1Cl)C1CC2OC1C(c1ccc(O)cc1)=C2c1ccc(O)cc1` (stereo unspecified), the values for the IC50 in [1] and in [2] were 17.4 µM and 38.2 µM, respectively.

Turning to `O=S(=O)(Oc1cncc(Cl)c1)C1CC2OC1C(c1ccc(O)cc1)=C2c1ccc(O)cc1` (stereo unspecified), the 50% inhibitory concentration (IC50) in [1] was greater than 50 µM; in assay [2], 49.4 µM.

With `Cc1cccc(NC(=O)C2CC3OC2C(c2ccc(O)cc2)=C3c2ccc(O)cc2)c1` (stereo unspecified), the IC50 in [1] was greater than 50 µM; in assay [2], 44.5 µM.

For `O=S(=O)(Oc1ccc2ccccc2c1)C1CC2OC1C(c1ccc(O)cc1)=C2c1ccc(O)cc1` (stereo unspecified), the half-inhibitory concentration (IC50) was 15.1 µM in [1] and 4.11 µM in [2].

For `Cc1cc(=O)oc2cc(OS(=O)(=O)C3CC4OC3C(c3ccc(O)cc3)=C4c3ccc(O)cc3)ccc12` (stereo unspecified), the IC50 in assay [1] is 13.7 µM; in assay [2], 38.3 µM.

With `O=S(=O)(Oc1ccc(-c2ccccc2)cc1)C1CC2OC1C(c1ccc(O)cc1)=C2c1ccc(O)cc1` (stereo unspecified), the concentration for half-maximal inhibition (IC50) in [1] is greater than 50 µM; in assay [2], 4.1 µM.

With `O=S(=O)(Oc1cccnc1Br)C1CC2OC1C(c1ccc(O)cc1)=C2c1ccc(O)cc1` (stereo unspecified), the results for the IC50 in [1] and in assay [2] were 12.3 µM and 7.84 µM, respectively.

On to `O=C(NCc1ccc2c(c1)OCO2)C1CC2OC1C(c1ccc(O)cc1)=C2c1ccc(O)cc1` (stereo unspecified), for which the IC50 in assay [1] was greater than 50 µM; in [2], 35.2 µM.

Take `O=S(=O)(Oc1cccc(F)n1)C1CC2OC1C(c1ccc(O)cc1)=C2c1ccc(O)cc1` (stereo unspecified): the viability at 5 µM in [3] came out at 84.7%. Moreover, the Activity is given as 4.62% in assay [4]; 8.57% in assay [5]; 2.08% in [6]; 7.1% in assay [8]; 11.03% in assay [9]; 2.21% in [10]. The Activity in assay [12] came to 13.74%; in assay [13], 23.57%; in assay [14], 5.79%. The viability at 10 µM in [7] turned out to be 79.7%. For the same compound, the viability at 30 µM in [11] is 56.9%. In addition, the IC50 in assay [1] stood at 1.55 µM; in [2], 8.79 µM.

Consider `O=S(=O)(Oc1cccc2ccccc12)C1CC2OC1C(c1ccc(O)cc1)=C2c1ccc(O)cc1` (stereo unspecified), for which the IC50 in assay [1] was greater than 50 µM; in [2] it was 37.7 µM.

In the case of `O=c1cc(C(F)(F)F)c2ccc(OS(=O)(=O)C3CC4OC3C(c3ccc(O)cc3)=C4c3ccc(O)cc3)cc2o1` (stereo unspecified), the IC50 in assay [1] is greater than 50 µM; in assay [2], 12.5 µM.

For the compound `O=S(=O)(Oc1ccccc1)C1CC2OC1C(c1ccc(O)cc1)=C2c1ccc(O)cc1` (stereo unspecified), the half-inhibitory concentration (IC50) is greater than 50 µM in assay [1] and 28.7 µM in assay [2].

On to `CC/C(=C(\c1ccc(O)cc1)c1ccc(OCCN(C)C)cc1)c1ccccc1` [AFIMOXIFENE], for which the half-maximal inhibitory concentration (IC50) in assay [1] was greater than 50 µM.

Source of the values: ChEMBL document CHEMBL4765290, “Design, synthesis and biological evaluation of novel dual-acting modulators targeting both estrogen receptor α (ERα) and lysine-specific demethylase 1 (LSD1) for treatment of breast cancer” (Eur J Med Chem, 2020).
